# From ChEMBL document CHEMBL2434959, “Identification and characterization of novel indole based small molecules as anticancer agents through SIRT1 inhibition” (Eur J Med Chem, 2013)
# The source made the active and inactive calls. The rule behind the calls is not given here.
# Columns and labels:
# [1] = Lipophilicity, log P of the compound; format: physicochemical; conditions: octanol/water
# K562 = assay: Growth inhibition of human K562 cells at 10 uM after 24 hrs by MTT assay; format: functional; conditions: K562, 24 h, read-out: GI
# MDA-MB-231 = assay: Growth inhibition of human MDA-MB-231 cells at 10 uM after 24 hrs by MTT assay; format: functional; conditions: MDA-MB-231, 24 h, read-out: GI
# Rattus norvegicus [2] = assay: Inhibition of testosterone propionate-induced prostate hyperplasia in Wistar rat assessed as reduction in histoarchitecture disruption at 10 mg/kg, ip co-administered with testosterone propionate for 14 days by hematoxylin/eosin staining method; format: functional, organism-based; design: dose 10 mg/kg; conditions: Prostate gland
# [3] = biological target: T1, NAD-dependent protein deacetylase sirtuin-1 (Homo sapiens) (UniProt Q96EB6); assay: Inhibition of recombinant human SIRT1 using AMC-Arg-His-Lys-Lys(Ac) as substrate at 40 uM after 45 mins by fluorimetric assay
# T1 sequence (whole entry): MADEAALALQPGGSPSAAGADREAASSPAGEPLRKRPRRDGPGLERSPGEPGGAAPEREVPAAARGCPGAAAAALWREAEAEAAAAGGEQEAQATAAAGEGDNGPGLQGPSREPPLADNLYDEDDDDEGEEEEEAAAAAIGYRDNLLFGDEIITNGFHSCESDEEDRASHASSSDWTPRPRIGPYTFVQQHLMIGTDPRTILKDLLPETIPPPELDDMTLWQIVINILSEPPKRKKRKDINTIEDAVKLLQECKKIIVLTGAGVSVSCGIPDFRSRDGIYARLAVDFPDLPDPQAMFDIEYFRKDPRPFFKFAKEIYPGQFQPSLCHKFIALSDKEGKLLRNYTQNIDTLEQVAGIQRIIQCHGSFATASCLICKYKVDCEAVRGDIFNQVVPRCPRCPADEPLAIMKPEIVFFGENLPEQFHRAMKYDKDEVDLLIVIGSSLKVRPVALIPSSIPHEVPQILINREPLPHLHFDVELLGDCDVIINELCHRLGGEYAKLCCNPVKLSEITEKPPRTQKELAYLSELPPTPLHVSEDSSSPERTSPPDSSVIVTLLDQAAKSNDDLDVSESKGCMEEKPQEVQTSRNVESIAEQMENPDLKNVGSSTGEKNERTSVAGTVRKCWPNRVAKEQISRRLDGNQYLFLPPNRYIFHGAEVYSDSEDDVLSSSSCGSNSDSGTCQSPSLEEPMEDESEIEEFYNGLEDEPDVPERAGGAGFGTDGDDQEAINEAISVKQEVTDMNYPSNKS
# Rattus norvegicus [4] = assay: Inhibition of testosterone propionate-induced prostate hyperplasia in Wistar rat assessed as retention of normal cell morphology at 10 mg/kg, ip co-administered with testosterone propionate for 14 days by hematoxylin/eosin staining method; format: functional, organism-based; design: dose 10 mg/kg
# Rattus norvegicus [5] = assay: Inhibition of testosterone propionate-induced prostate hyperplasia in Wistar rat at 10 mg/kg, ip co-administered with testosterone propionate for 14 days; format: functional; conditions: Prostate gland, 336 h, route intraperitoneal
# Rattus norvegicus [6] = assay: Inhibition of testosterone propionate-induced prostate hyperplasia in Wistar rat assessed as seminal vesicle weight at 10 mg/kg, ip co-administered with testosterone propionate for 14 days (reference value: 1.6071 +/- 0.0821 g); format: functional, Prostate gland; conditions: route intraperitoneal
# LNCaP = assay: Growth inhibition of human LNCAP cells at 10 uM after 24 hrs by MTT assay; format: functional; conditions: read-out: GI
# Rattus norvegicus [7] = assay: Inhibition of testosterone propionate-induced prostate hyperplasia in Wistar rat assessed as ratio of prostate weight to body weight at 10 mg/kg, ip co-administered with testosterone propionate for 14 days (reference value: 3.1634 +/- 0.1264 no unit); format: functional, Prostate gland; conditions: route intraperitoneal
# Rattus norvegicus [8] = assay: Inhibition of testosterone propionate-induced prostate hyperplasia in Wistar rat assessed as reduction in SIRT1 mRNA level in prostate tissue at 10 mg/kg, ip co-administered with testosterone propionate for 14 days by RT-PCR analysis; format: functional, organism-based; design: dose 10 mg/kg; conditions: Prostate gland
# Rattus norvegicus [9] = assay: Inhibition of testosterone propionate-induced prostate hyperplasia in Wistar rat assessed as prostate weight at 10 mg/kg, ip co-administered with testosterone propionate for 14 days (reference value: 0.838 +/- 0.0293 g); format: functional, Prostate gland; conditions: route intraperitoneal
# Rattus norvegicus [10] = assay: Inhibition of testosterone propionate-induced prostate hyperplasia in Wistar rat assessed as seminal vesicle weight at 5 mg/kg, ip co-administered with testosterone propionate for 14 days (reference value: 1.6071 +/- 0.0821 g); format: functional, Prostate gland; conditions: route intraperitoneal
# Rattus norvegicus [11] = assay: Inhibition of testosterone propionate-induced prostate hyperplasia in Wistar rat assessed as reduction in histoarchitecture disruption at 5 mg/kg, ip co-administered with testosterone propionate for 14 days by hematoxylin/eosin staining method; format: functional, organism-based; design: dose 5 mg/kg; conditions: Prostate gland
# Rattus norvegicus [12] = assay: Inhibition of testosterone propionate-induced prostate hyperplasia in Wistar rat assessed as prostate weight at 5 mg/kg, ip co-administered with testosterone propionate for 14 days (reference value: 0.838 +/- 0.0293 g); format: functional, Prostate gland; conditions: route intraperitoneal
# Rattus norvegicus [13] = assay: Inhibition of testosterone propionate-induced prostate hyperplasia in Wistar rat assessed as ratio of prostate weight to body weight at 5 mg/kg, ip co-administered with testosterone propionate for 14 days (reference value: 3.1634 +/- 0.1264 no unit); format: functional, Prostate gland; conditions: route intraperitoneal
# Rattus norvegicus [14] = assay: Inhibition of testosterone propionate-induced prostate hyperplasia in Wistar rat assessed as retention of normal cell morphology at 5 mg/kg, ip co-administered with testosterone propionate for 14 days by hematoxylin/eosin staining method; format: functional, organism-based; design: dose 5 mg/kg
SMILES,logP [1],inhibition of growth at 10 µM (MDA-MB-231),other results
CC(C)Sc1nnc(-c2c(CN3CCC(N4CCCC4)CC3)c3ccccc3n2C)n1-c1ccccc1,5.16,–,–
COc1cc(NCc2c(-c3nnc(SC(C)C)n3-c3ccccc3)n(C)c3ccc(F)cc23)cc(OC)c1OC,5.96,–,inhibition of growth at 10 µM (K562): > 50%
CC(C)Sc1nnc(-c2c(CN3CCOCC3)c3ccccc3n2C)n1-c1ccccc1,4.5,–,–
COc1ccc(CNCc2c(-c3nnc(SC(C)C)n3-c3ccccc3)n(C)c3ccc(F)cc23)cc1,6.42,> 50%,inhibition (Rattus norvegicus [2]): Active; inhibition [3]: 70%; inhibition (Rattus norvegicus [4]): Active; inhibition in vivo at 10 mg/kg (Rattus norvegicus [5]): 70.5%; Activity (Rattus norvegicus [6]): 0.619 g; inhibition of growth at 10 µM (LNCaP): > 50%; Ratio (Rattus norvegicus [7]): 0.002298; inhibition (Rattus norvegicus [8]): Active; Activity (Rattus norvegicus [9]): 0.537 g
CC(C)Sc1nnc(-c2c(CNc3nc4ccccc4[nH]3)c3ccccc3n2C)n1-c1ccccc1,5.94,–,–
CC(C)Sc1nnc(-c2c(CNCCCN3CCOCC3)c3cc(F)ccc3n2C)n1-c1ccccc1,4.38,–,–
COc1ccc(CNCc2c(-c3nnc(SC(C)C)n3-c3ccccc3)n(C)c3ccccc23)cc1,6.27,> 50%,–
COCCNCc1c(-c2nnc(SC(C)C)n2-c2ccccc2)n(C)c2ccccc12,4.36,–,–
COc1cccc(CNCc2c(-c3nnc(SC(C)C)n3-c3ccccc3)n(C)c3ccccc23)c1,6.27,> 50%,–
CC(C)Sc1nnc(-c2c(CNCCCN3CCOCC3)c3ccccc3n2C)n1-c1ccccc1,4.22,–,–
CC1CCN(Cc2c(-c3nnc(SC(C)C)n3-c3ccccc3)n(C)c3ccccc23)CC1,5.96,–,inhibition of growth at 10 µM (K562): 88%
CC(C)Sc1nnc(-c2c(CNCCN3CCOCC3)c3ccccc3n2C)n1-c1ccccc1,4.12,–,–
COCCNCc1c(-c2nnc(SC(C)C)n2-c2ccccc2)n(C)c2ccc(F)cc12,4.52,–,inhibition of growth at 10 µM (LNCaP): > 50%
CC(C)Sc1nnc(-c2c(CN3CCOCC3)c3cc(F)ccc3n2C)n1-c1ccccc1,4.65,–,inhibition of growth at 10 µM (K562): 88%
COc1cc(NCc2c(-c3nnc(SC(C)C)n3-c3ccccc3)n(C)c3ccccc23)cc(OC)c1OC,5.8,–,–
CC(C)Sc1nnc(-c2c(CNC3CC3)c3cc(F)ccc3n2C)n1-c1ccccc1,4.97,> 50%,inhibition of growth at 10 µM (K562): > 50%
CC(C)Sc1nnc(-c2c(CN3CCCCC3C)c3ccccc3n2C)n1-c1ccccc1 (stereo not given),5.95,–,–
CC(C)Sc1nnc(-c2c(CNCC3CC3)c3cc(F)ccc3n2C)n1-c1ccccc1,5.4,> 50%,inhibition of growth at 10 µM (K562): > 50%
COc1cccc(CNCc2c(-c3nnc(SC(C)C)n3-c3ccccc3)n(C)c3ccc(F)cc23)c1,6.42,> 50%,–
CC(C)(C)NC(=O)[C@H]1CC[C@H]2[C@@H]3CC[C@H]4NC(=O)C=C[C@]4(C)[C@H]3CC[C@]12C [FINASTERIDE],–,–,Activity (Rattus norvegicus [10]): 0.9051 g; inhibition (Rattus norvegicus [11]): Active; Activity (Rattus norvegicus [12]): 0.556 g; Ratio (Rattus norvegicus [13]): 0.002471; inhibition (Rattus norvegicus [14]): Active
CC(C)Sc1nnc(-c2c(CNc3cnccn3)c3ccccc3n2C)n1-c1ccccc1,4.22,–,–
CC1CN(Cc2c(-c3nnc(SC(C)C)n3-c3ccccc3)n(C)c3ccccc23)CC(C)O1 (stereo not given),5.13,–,–
CC(C)Sc1nnc(-c2c(CNCC3CC3)c3ccccc3n2C)n1-c1ccccc1,5.24,–,inhibition of growth at 10 µM (K562): > 50%
CC(C)Sc1nnc(-c2c(CNCCN3CCCC3)c3ccccc3n2C)n1-c1ccccc1,4.83,–,–
CC(C)Sc1nnc(-c2c(CNCCN3CCCC3)c3cc(F)ccc3n2C)n1-c1ccccc1,4.99,–,–
CC(C)Sc1nnc(-c2c(CNC3CC3)c3ccccc3n2C)n1-c1ccccc1,4.81,–,–
CC1CCCN(Cc2c(-c3nnc(SC(C)C)n3-c3ccccc3)n(C)c3ccc(F)cc23)C1 (stereo not given),6.18,> 50%,–
CC(C)Sc1nnc(-c2c(CNCCN3CCOCC3)c3cc(F)ccc3n2C)n1-c1ccccc1,4.28,–,–
CC1CCCN(Cc2c(-c3nnc(SC(C)C)n3-c3ccccc3)n(C)c3ccccc23)C1 (stereo not given),6.03,> 50%,–
CC1CCN(Cc2c(-c3nnc(SC(C)C)n3-c3ccccc3)n(C)c3ccc(F)cc23)CC1,6.12,> 50%,inhibition of growth at 10 µM (LNCaP): > 50%
